According to ChEMBL document CHEMBL1152484, “3D-QSAR studies on the inhibitors of AP-1 and NF-kappaB mediated transcriptional activation” (Eur J Med Chem, 2009):

assay: Inhibition of AP-1/NF-kappaB transfected in human jurkat T cells assessed as inhibition of transcriptional activation; format: cell-based

Compound	IC50
CC1=CC(=O)N(Nc2nc(C(F)(F)F)nc3ccc(S(C)(=O)=O)cc23)C1=O	8990 nM
CCOC(=O)c1cnc(C2CC2)nc1NN1C(=O)C=C(C)C1=O	1000 nM
CCOC(=O)c1cnc(-c2cc(Cl)cc(Cl)c2)nc1NN1C(=O)C=C(C)C1=O	300 nM
CCOC(=O)c1cnc(Sc2ccccc2)nc1NN1C(=O)C=C(C)C1=O	1000 nM
CCOC(=O)c1cnc(C(F)(F)F)nc1NN1C(=O)C(C)=C(C)C1=O	10000 nM
CCOC(=O)c1cnc(Cc2ccccc2)nc1NN1C(=O)C=C(C)C1=O	7000 nM
CCOC(=O)c1cnc(-c2cnc3ccccc3c2)nc1NN1C(=O)C=C(C)C1=O	10000 nM
CCOC(=O)c1cnc(Oc2ccccc2)nc1NN1C(=O)C=C(C)C1=O	15000 nM
CCOC(=O)c1cnc(C(F)(F)F)nc1NN1C(=O)C=C(C)C1=O	1000 nM
CCOC(=O)c1cnc(CC)nc1N(C)N1C(=O)C=C(C)C1=O	10000 nM
CCOC(=O)c1cnc(-c2ccc(OC)cc2)nc1NN1C(=O)C=C(C)C1=O	899 nM
CCOC(=O)c1cnc(CC)nc1NN1C(=O)C=C(C)C1=O	10000 nM
CCOC(=O)c1cnc(C(F)(F)F)nc1NN1C(=O)C=CC1=O	10000 nM
CCOC(=O)c1cnc(-c2ccc(C(F)(F)F)cc2)nc1NN1C(=O)C=C(C)C1=O	400 nM
CCOC(=O)c1cnc(-c2ccc(F)cc2)nc1NN1C(=O)C=C(C)C1=O	700 nM
CCOC(=O)c1cnc(-c2cc3ccccc3s2)nc1NN1C(=O)C=C(C)C1=O	4000 nM
CC1=CC(=O)N(Nc2nc(C(F)(F)F)nc3cccc(C)c23)C1=O	400 nM
CCOC(=O)c1cnc(-n2nc(C)cc2C)nc1NN1C(=O)C=C(C)C1=O	10000 nM
CCOC(=O)c1cnc(-c2ccc(Cl)cc2)nc1NN1C(=O)C=C(C)C1=O	300 nM
CCOC(=O)c1cnc(-c2ccccc2)nc1N(C(C)=O)N1C(=O)C=C(C)C1=O	4000 nM

Compound	IC50
CCOC(=O)c1cnc(-c2ccc(Cl)s2)nc1NN1C(=O)C=C(C)C1=O	300 nM
CCOC(=O)c1cnc(C(C)(C)C)nc1NN1C(=O)C=C(C)C1=O	1000 nM
CCOC(=O)c1cnc(S(=O)(=O)c2ccccc2)nc1NN1C(=O)C=C(C)C1=O	10000 nM
CCOC(=O)c1cnc(-c2cccc([N+](=O)[O-])c2)nc1NN1C(=O)C=C(C)C1=O	7000 nM
CCOC(=O)c1cnc(-c2ccccc2)nc1N(C)N1C(=O)C=C(C)C1=O	2000 nM
CC1=CC(=O)N(Nc2nc(-c3cccs3)ncc2-c2cc(C)no2)C1=O	300 nM
CCOC(=O)c1cnc(-c2cccs2)nc1N(C)N1C(=O)C=C(C)C1=O	1000 nM
CCOC(=O)c1cnc(-c2ccc(F)cc2)nc1N(C)N1C(=O)C=C(C)C1=O	3000 nM
CCOC(=O)c1cnc(C)nc1NN1C(=O)C=C(C)C1=O	16000 nM
CCOC(=O)c1cnc(-c2ccncc2)nc1NN1C(=O)C=C(C)C1=O	6000 nM
CCOC(=O)c1cnc(-c2csc(C)n2)nc1NN1C(=O)C=C(C)C1=O	8000 nM
CC1=CC(=O)N(Nc2nc(-c3cccs3)ncc2C#N)C1=O	5000 nM
CCOC(=O)c1cnc(CC2=CCCCC2)nc1NN1C(=O)C=C(C)C1=O	2000 nM
CCOC(=O)c1cnc(-c2cccc(OC)c2)nc1NN1C(=O)C=C(C)C1=O	5000 nM
CCOC(=O)c1cnc(-c2cc(Cl)nc(Cl)c2)nc1NN1C(=O)C=C(C)C1=O	2000 nM
CC1=CC(=O)N(Nc2nc(-c3cccs3)ncc2-c2nnc(C)o2)C1=O	300 nM
CCOC(=O)c1cnc(C(F)(F)F)nc1NN1C(=O)C=C(c2ccccc2)C1=O	20000 nM
CCOC(=O)c1cnc(-c2cccc(Br)c2)nc1NN1C(=O)C=C(C)C1=O	700 nM
CC1=CC(=O)N(Nc2nc(C(F)(F)F)nc3ccc([S+](C)[O-])cc23)C1=O (stereo not drawn)	1000 nM

The next molecules have a lower IC50 than those just listed; values first:

IC50	Compound
200 nM	CCOC(=O)c1cnc(-c2ccc(C)s2)nc1NN1C(=O)C=C(C)C1=O
200 nM	CC1=CC(=O)N(Nc2nc(-c3cccs3)ncc2C2=NCCO2)C1=O
200 nM	CCOC(=O)c1cnc(C(=O)c2ccco2)nc1NN1C(=O)C=C(C)C1=O
200 nM	CC1=CC(=O)N(Nc2nc(C(F)(F)F)nc3cc(N4CCCCC4)ccc23)C1=O
200 nM	CC1=CC(=O)N(Nc2nc(-c3cccs3)nc3cc(N4CCOCC4)ccc23)C1=O
200 nM	CCOC(=O)c1cnc(SC)nc1NN1C(=O)C=C(C)C1=O
200 nM	CC1=CC(=O)N(Nc2nc(-c3cccs3)ncc2-c2nnn(C)n2)C1=O
200 nM	CC1=CC(=O)N(Nc2nc(-c3cccs3)ncc2-c2nc(C)co2)C1=O
100 nM	CC1=CC(=O)N(Nc2nc(C(F)(F)F)nc3ccc(O)cc23)C1=O
100 nM	CCOC(=O)c1cnc(-c2ccccc2)nc1NN1C(=O)C=C(C)C1=O
100 nM	CC1=CC(=O)N(Nc2nc(C(F)(F)F)nc3ccccc23)C1=O
100 nM	CC1=CC(=O)N(Nc2nc(-c3ccccc3)nc3ccccc23)C1=O
100 nM	CCOC(=O)c1cnc(-c2ccsc2)nc1NN1C(=O)C=C(C)C1=O
80 nM	CSc1ccc2nc(C(F)(F)F)nc(NN3C(=O)C=C(C)C3=O)c2c1
60 nM	CC1=CC(=O)N(Nc2nc(-c3cccs3)nc3ccccc23)C1=O
50 nM	COc1cc2nc(-c3cccs3)nc(NN3C(=O)C=C(C)C3=O)c2cc1OC
50 nM	CC1=CC(=O)N(Nc2nc(-c3cccs3)nc3cccc(F)c23)C1=O
50 nM	COc1cccc2c(NN3C(=O)C=C(C)C3=O)nc(-c3cccs3)nc12
40 nM	COc1cc2c(NN3C(=O)C=C(C)C3=O)nc(-c3cccs3)nc2c(OC)c1OC
40 nM	CC1=CC(=O)N(Nc2nc(-c3cccs3)nc3cc(N(C)C)ccc23)C1=O
30 nM	COc1ccc2nc(C(F)(F)F)nc(NN3C(=O)C=C(C)C3=O)c2c1
20 nM	CC1=CC(=O)N(Nc2nc(-c3cccs3)nc3cccc(C)c23)C1=O
20 nM	CC1=CC(=O)N(Nc2nc(C(F)(F)F)nc3cc(N(C)C)ccc23)C1=O
20 nM	CCOC(=O)c1cnc(-c2cccs2)nc1NN1C(=O)C=C(C)C1=O
20 nM	COc1ccc2c(NN3C(=O)C=C(C)C3=O)nc(-c3cccs3)nc2c1
20 nM	CC1=CC(=O)N(Nc2nc(-c3cccs3)nc3ccc(Cl)cc23)C1=O
10 nM	COc1cccc2nc(C(F)(F)F)nc(NN3C(=O)C=C(C)C3=O)c12
8 nM	COc1cccc2nc(-c3cccs3)nc(NN3C(=O)C=C(C)C3=O)c12 [AS-602868]
3 nM	COc1ccc2nc(-c3cccs3)nc(NN3C(=O)C=C(C)C3=O)c2c1
